Laboratory results published in patent US6486322B1, “Azaindole derivatives, process for their preparation, and their use as antitumor agents” (Pharmacia Italia S.p.A., priority 2000, dated 2002).

melting point | SMILES
177 to 179 °C (dec.) | CCCCNC(=O)C(=Cc1c[nH]c2ncccc12)c1ccccc1 [compound 301, N-butyl-2-phenyl-3-(1H-pyrrolo[2,3-b]pyridin-3-yl)-2-propenamide]
> 230 °C | O=C(O)C(=Cc1c[nH]c2ncccc12)c1ccccc1 [compound 300, 2-phenyl-3-(1H-pyrrolo[2,3-b]pyridin-3-yl)-2-propenoic acid]
222 to 224 °C | NC(=O)C(=Cc1c[nH]c2ncccc12)c1ccccc1 [compound 299, 2-phenyl-3-(1H-pyrrolo[2,3-b]pyridin-3-yl)-2-propenamide]
